Measurements reported in patent US20260285850A1, “SUBSTITUTED OXAZOLIDINONES AND IMIDAZOLINONES AS HERBICIDES” (FMC CORPORATION, priority 2023, published 2026).

Key:
Assay type in all cases: in vivo
[1] = tested on: foxtail, giant (giant foxtail, Setaria faberi); experiment: Test A postemergence application, visual injury rating 0-100; details: 10 days, 0 is no effect, 100 is complete control
Method in brief: (§1)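 Grow plants in loam soil blended with sand. Apply formulated compound (non-phytotoxic solvent, surfactant) as a directed soil spray before emergence, or to plants at the one- to two-leaf stage after emergence. Hold in greenhouse 10 days, then rate injury visually versus untreated controls on a 0-100 scale.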

[2] = tested on: ryegrass, Italian (italian ryegrass, Lolium multiflorum); experiment: as above; details: Postemergence, 10 days, 0 is no effect, 100 is complete control
Method in brief: as §1

[3] = tested on: galium (catchweed bedstraw, Galium aparine); experiment: as above; details: Postemergence, 10 days, 0 is no effect, 100 is complete control
Method in brief: as §1

[4] = tested on: kochia (Bassia scoparia); experiment: as above; details: Postemergence, 10 days, 0 is no effect, 100 is complete control
Method in brief: as §1

[5] = tested on: wheat (Triticum aestivum); experiment: as above; details: Postemergence, 10 days, 0 is no effect, 100 is complete control
Method in brief: as §1

[6] = tested on: oat, wild (wild oat, Avena fatua); experiment: as above; details: Postemergence, 10 days, 0 is no effect, 100 is complete control
Method in brief: as §1

[7] = tested on: corn (Zea mays); experiment: as above; details: Postemergence, 10 days, 0 is no effect, 100 is complete control
Method in brief: as §1

[8] = tested on: blackgrass (Alopecurus myosuroides); experiment: as above; details: Postemergence, 10 days, 0 is no effect, 100 is complete control
Method in brief: as §1

[9] = tested on: ragweed (common ragweed, Ambrosia artemisiifolia); experiment: as above; details: Postemergence, 10 days, 0 is no effect, 100 is complete control
Method in brief: as §1

[10] = tested on: barnyardgrass (Echinochloa crus-galli); experiment: as above; details: Postemergence, 10 days, 0 is no effect, 100 is complete control
Method in brief: as §1

[11] = tested on: palmer (palmer amaranth, palmer pigweed, Amaranthus palmeri); experiment: as above; details: Postemergence, 10 days, 0 is no effect, 100 is complete control
Method in brief: as §1

[12] = tested on: horseweed (Erigeron canadensis); experiment: as above; details: Postemergence, 10 days, 0 is no effect, 100 is complete control
Method in brief: as §1

[13] = tested on: soybean (Glycine max); experiment: as above; details: Postemergence, 10 days, 0 is no effect, 100 is complete control
Method in brief: as §1

[14] = tested on: foxtail, giant (giant foxtail, Setaria faberi); experiment: Test A preemergence soil spray, visual injury rating 0-100; details: 10 days, 0 = no effect, 100 = complete control
Method in brief: as §1

[15] = tested on: ryegrass, Italian (italian ryegrass, Lolium multiflorum); experiment: as above; details: 10 days, 0 = no effect, 100 = complete control
Method in brief: as §1

[16] = tested on: kochia (Bassia scoparia); experiment: as above; details: 10 days, 0 = no effect, 100 = complete control
Method in brief: as §1

[17] = tested on: wheat (Triticum aestivum); experiment: as above; details: 10 days, 0 = no effect, 100 = complete control
Method in brief: as §1

[18] = tested on: oat, wild (wild oat, Avena fatua); experiment: as above; details: 10 days, 0 = no effect, 100 = complete control
Method in brief: as §1

[19] = tested on: corn (Zea mays); experiment: as above; details: 10 days, 0 = no effect, 100 = complete control
Method in brief: as §1

[20] = tested on: blackgrass (Alopecurus myosuroides); experiment: as above; details: 10 days, 0 = no effect, 100 = complete control
Method in brief: as §1

[21] = tested on: ragweed (common ragweed, Ambrosia artemisiifolia); experiment: as above; details: 10 days, 0 = no effect, 100 = complete control
Method in brief: as §1

[22] = tested on: barnyardgrass (Echinochloa crus-galli); experiment: as above; details: 10 days, 0 = no effect, 100 = complete control
Method in brief: as §1

[23] = tested on: palmer (palmer amaranth, palmer pigweed, Amaranthus palmeri); experiment: as above; details: 10 days, 0 = no effect, 100 = complete control
Method in brief: as §1

[24] = tested on: soybean (Glycine max); experiment: as above; details: 10 days, 0 = no effect, 100 = complete control
Method in brief: as §1

[25] = tested on: barnyardgrass (Echinochloa crusgalli); experiment: Test B flooded paddy test, visual plant response rating 0-100; details: 250 g ai/ha, Flood, applied to paddy water, evaluated after 13 days
Method in brief: (§2)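 Visual evaluation after 13 days. Water-applied treatment, 3 cm flood depth held constant, plants at 2-leaf stage at treatment.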

[26] = tested on: ducksalad (Heteranthera limosa); experiment: as above; details: 250 g ai/ha, Flood, applied to paddy water, evaluated after 13 days
Method in brief: as §2

[27] = tested on: rice (Oryza sativa); experiment: as above; details: 250 g ai/ha, Flood, applied to paddy water, evaluated after 13 days
Method in brief: as §2

[28] = tested on: sedge, umbrella (small-flower umbrella sedge, Cyperus difformis); experiment: as above; details: 250 g ai/ha, Flood, applied to paddy water, evaluated after 13 days
Method in brief: as §2

**Q.** Which “Foxtail, Giant plant response rating (0 to 100 scale)” value (“Foxtail, Giant plant response rating” below) ([1]; 125 g ai/ha) does the source give for CC1(C(=O)NC2C=CC(C(=O)NS(C)(=O)=O)C2)CN(c2cc(F)cc(F)c2)C(=O)O1 (stereo not shown) [Compound 30] here?
**A.** 90

**Q.** And the “Foxtail, Giant plant response rating” value ([1]; 500 g ai/ha)?
**A.** 90

**Q.** And the “Ryegrass, Italian plant response rating (0 to 100 scale)” value (“Ryegrass, Italian plant response rating” below) ([2]; 125 g ai/ha)?
**A.** 80

**Q.** What about the “Ryegrass, Italian plant response rating” value ([2]; 500 g ai/ha) of the same compound?
**A.** 100

**Q.** And the “Galium plant response rating (0 to 100 scale)” value ([3]; 125 g ai/ha)?
**A.** 80

**Q.** What about the “Galium plant response rating (0 to 100 scale)” value ([3]; 500 g ai/ha) of the same compound?
**A.** 80

**Q.** What about the “Kochia plant response rating (0 to 100 scale)” value (shortened to “Kochia plant response rating”) ([4]; 125 g ai/ha) of the same compound?
**A.** 70

**Q.** What about the “Kochia plant response rating” value ([4]; 500 g ai/ha) of the same compound?
**A.** 80

**Q.** And the “Wheat plant response rating (0 to 100 scale)” value (from here on “Wheat plant response rating”) ([5]; 125 g ai/ha)?
**A.** 80

**Q.** And the “Wheat plant response rating” value ([5]; 500 g ai/ha)?
**A.** 80

**Q.** And the “Oat, Wild plant response rating (0 to 100 scale)” value (“Oat, Wild plant response rating” below) ([6]; 125 g ai/ha)?
**A.** 100

**Q.** What about the “Oat, Wild plant response rating” value ([6]; 500 g ai/ha) of the same compound?
**A.** 100

**Q.** And the “Corn plant response rating (0 to 100 scale)” value (shortened to “Corn plant response rating”) ([7]; 125 g ai/ha)?
**A.** 60

**Q.** And the “Corn plant response rating” value ([7]; 500 g ai/ha)?
**A.** 90

**Q.** And the “Blackgrass plant response rating (0 to 100 scale)” value (“Blackgrass plant response rating” below) ([8]; 125 g ai/ha)?
**A.** 70

**Q.** What about the “Blackgrass plant response rating” value ([8]; 500 g ai/ha) of the same compound?
**A.** 100

**Q.** And the “Ragweed plant response rating (0 to 100 scale)” value (“Ragweed plant response rating” below) ([9]; 125 g ai/ha)?
**A.** 20

**Q.** What about the “Ragweed plant response rating” value ([9]; 500 g ai/ha) of the same compound?
**A.** 80

**Q.** What about the “Barnyardgrass plant response rating (0 to 100 scale)” value (“Barnyardgrass plant response rating” for short) ([10]; 125 g ai/ha) of the same compound?
**A.** 100

**Q.** What about the “Barnyardgrass plant response rating” value ([10]; 500 g ai/ha) of the same compound?
**A.** 100

**Q.** What about the “Amaranth, Palmer / Pigweed, Palmer plant response rating (0 to 100 scale)” value ([11]; 125 g ai/ha) of the same compound?
**A.** 90

**Q.** What about the “Amaranth, Palmer / Pigweed, Palmer plant response rating (0 to 100 scale)” value ([11]; 500 g ai/ha) of the same compound?
**A.** 90

**Q.** What about the “Horseweed plant response rating (0 to 100 scale)” value ([12]; 125 g ai/ha) of the same compound?
**A.** 30

**Q.** What about the “Horseweed plant response rating (0 to 100 scale)” value ([12]; 500 g ai/ha) of the same compound?
**A.** 80

**Q.** What about the “Soybean plant response rating (0 to 100 scale)” value (“Soybean plant response rating” below) ([13]; 125 g ai/ha) of the same compound?
**A.** 60

**Q.** What about the “Soybean plant response rating” value ([13]; 500 g ai/ha) of the same compound?
**A.** 70

**Q.** What about the “Foxtail, Giant plant response rating” value ([14]; 125 g ai/ha) of the same compound?
**A.** 30

**Q.** What about the “Foxtail, Giant plant response rating” value ([14]; 500 g ai/ha) of the same compound?
**A.** 100

**Q.** What about the “Ryegrass, Italian plant response rating” value ([15]; 125 g ai/ha) of the same compound?
**A.** 70

**Q.** What about the “Ryegrass, Italian plant response rating” value ([15]; 500 g ai/ha) of the same compound?
**A.** 90

**Q.** What about the “Kochia plant response rating” value ([16]; 125 g ai/ha) of the same compound?
**A.** 90

**Q.** And the “Kochia plant response rating” value ([16]; 500 g ai/ha)?
**A.** 90

**Q.** And the “Wheat plant response rating” value ([17]; 125 g ai/ha)?
**A.** 90

**Q.** And the “Wheat plant response rating” value ([17]; 500 g ai/ha)?
**A.** 100

**Q.** And the “Oat, Wild plant response rating” value ([18]; 125 g ai/ha)?
**A.** 60

**Q.** And the “Oat, Wild plant response rating” value ([18]; 500 g ai/ha)?
**A.** 90

**Q.** What about the “Corn plant response rating” value ([19]; 125 g ai/ha) of the same compound?
**A.** 70

**Q.** And the “Corn plant response rating” value ([19]; 500 g ai/ha)?
**A.** 80

**Q.** What about the “Blackgrass plant response rating” value ([20]; 125 g ai/ha) of the same compound?
**A.** 80

**Q.** And the “Blackgrass plant response rating” value ([20]; 500 g ai/ha)?
**A.** 90

**Q.** What about the “Ragweed plant response rating” value ([21]; 125 g ai/ha) of the same compound?
**A.** 40

**Q.** What about the “Ragweed plant response rating” value ([21]; 500 g ai/ha) of the same compound?
**A.** 60

**Q.** What about the “Barnyardgrass plant response rating” value ([22]; 125 g ai/ha) of the same compound?
**A.** 60

**Q.** What about the “Barnyardgrass plant response rating” value ([22]; 500 g ai/ha) of the same compound?
**A.** 100

**Q.** What about the “Amaranth, Palmer plant response rating (0 to 100 scale)” value ([23]; 125 g ai/ha) of the same compound?
**A.** 80

**Q.** And the “Amaranth, Palmer plant response rating (0 to 100 scale)” value ([23]; 500 g ai/ha)?
**A.** 100

**Q.** What about the “Soybean plant response rating” value ([24]; 125 g ai/ha) of the same compound?
**A.** 0

**Q.** What about the “Soybean plant response rating” value ([24]; 500 g ai/ha) of the same compound?
**A.** 80

**Q.** And the “Plant response rating, Barnyardgrass (0 to 100 scale, 0 is no effect and 100 is complete control)” value [25]?
**A.** 15

**Q.** What about the “Plant response rating, Ducksalad (0 to 100 scale, 0 is no effect and 100 is complete control)” value [26] of the same compound?
**A.** 65

**Q.** And the “Plant response rating, Rice (0 to 100 scale, 0 is no effect and 100 is complete control)” value [27]?
**A.** 0

**Q.** What about the “Plant response rating, Sedge, Umbrella (0 to 100 scale, 0 is no effect and 100 is complete control)” value [28] of the same compound?
**A.** 95
